Reference: patent US11576911B2, “Composition and method for treatment of depression and psychosis in humans” (Glytech LLC, priority 2012, dated 2023)

Tests used:
[1] = tested on: Male BalbC/J mice; assay: Rodent forced swim test (FST), immobility time; assay type: in vivo; parameters: key to Mean immobility time in the rodent forced swim test (FST): seconds of immobility over the 6-min test; settings: for Mean immobility time in the rodent forced swim test (FST): Table 5; for Effect on immobility in the FST, in words: at indicated doses of Table 5; for immobility time in the rodent forced swim test (FST), Mean: Table 3
Description: Male BalbC/J mice (8 weeks old) from Jackson Laboratories (Bar Harbor, Me.) were used. Upon receipt, mice were assigned unique identification numbers (tail marked) and were group housed in OPTImice cages. All animals were acclimated to the colony room for 1 week prior to testing. During the period of acclimation, animals were examined on a regular basis, handled, and weighed to assure adequate health and suitability. Animals were maintained on a 12/12 light/dark cycle. The room temperature was maintained between 20 and 23° C. with a relative humidity maintained between 30% and 70%. Chow and water were provided ad libitum for the duration of the study. All testing was performed during the animal's light cycle phase.
Mice were acclimated to the test room at least 1 hour prior to commencing the test. The forced swimming test consisted of one 6-minute session of forced swimming in individual opaque cylinders (15 cm tall×10 cm wide, 1000 ml beakers) containing fresh tap water at a temperature of 23±2° C. and a depth of 12 cm (approximately 800 ml) for each test animal. The time the animal spent immobile was recorded over the 6 min trial. Every 1 min the cumulative immobility time was recorded from the start of the session and noted on the study data record sheet. Immobility was defined as the postural position of floating in the water. The animals were generally observed with the back slightly hunched and the head above water with no movements or with small stabilizing movements of the limbs. After the swim test, each animal was placed in a pre-heated cage with a heating pad and allowed to dry.
The main variable used to represent immobility in this test was the total time immobile during the 6-min test period. Statistics were performed by analysis of variance (ANOVA) with Dunnett post-hoc testing vs. the control condition or by t-test as appropriate.
Sertraline, a known antidepressant, is used as a positive control.
For this study, further NMDAR antagonist compounds were tested for their ability to reduce immobility time in the rodent FST test, indicative of potential anti-depressant effects, and further 5-HT2AR antagonists were tested for their ability to produce reductions of time spent in the open arms of the EPM, indicative to potential liability to induce anxiety, akathisia and suicidality in humans

[2] = tested on: Male C57Bl/6J mice; assay: Elevated plus maze (EPM), DOI 2 mg/kg in all conditions; assay type: in vivo; settings: for Reversal of 5-HT2A antagonist induced reductions in open arm measures of the EPM, in words: NMDAR antagonists, summary of Example 1; for DTO Mean / PCT Mean: Table 2; for Mean distance travelled in the open arm of the EPM: Table 6, DOI 2 mg/kg added
[3] = tested on: Male C57Bl/6J mice; settings: selective 5-HT2A antagonist alone; previously demonstrated (U.S. Pat. No. 9,846,453); cited from earlier work

In the case of `O=C(O)[C@H]1C[C@@H](CP(=O)(O)O)CCN1` (relative stereo) [CGS-19755, cis-4-(phosphonomethyl)-2-piperidinecarboxylic acid], the “Mean immobility time in the rodent forced swim test (FST)” value (“Mean immobility time” below) ([1]; 0.03 mg/kg) is reported as 125.60, the “Mean immobility time” value ([1]; 0.1 mg/kg) is reported as 144.30 and the “Mean immobility time” value ([1]; 0.3 mg/kg) is reported as 120.00. For the same compound, the “Mean immobility time” value ([1]; 1.0 mg/kg) was 137.20, the “Mean immobility time” value ([1]; 3.0 mg/kg) was 154.90 and the “Mean immobility time” value ([1]; 10 mg/kg) was 114.70. For the same compound, the “Effect on immobility in the FST, in words” value [1] was “numerically reduce immobility” and the “Reversal of 5-HT2A antagonist induced reductions in open arm measures of the EPM, in words” value [2] was “Pro-therapeutic effects”.

With `O=c1ccc2ccc(OCCCCN3CCN(c4cccc5sccc45)CC3)cc2[nH]1` [Brexpiprazole] the immobility time in the rodent forced swim test (FST), Mean ([1]; .3 mpk alone) was 239 s, the “Effect on immobility in the forced swim test, in words” value ([1]; agent alone (Table 3)) was “significantly increased immobility” and the “DTO Mean” value ([2]; .3 mg/kg alone) was 131.6. For the same compound, the “PCT Mean” value ([2]; .3 mg/kg alone) was 28.7%, the “Mean distance travelled in the open arm of the EPM” value (from here on “Mean distance travelled”) ([2]; 0.1 mg/kg) was 160.10 and the “Mean distance travelled” value ([2]; 0.3 mg/kg) was 204.70. For the same compound, the “Mean distance travelled” value ([2]; 1 mg/kg) was 93.70.

In the case of `O=C(O)[C@H]1CN(C/C=C/P(=O)(O)O)CCN1` [D-CPPene, D-(E)-4-(3-phosphonoprop-2-enyl)piperazine-2-carboxylic acid], the “Mean immobility time” value ([1]; 0.03 mg/kg) is reported as 124.20, the “Mean immobility time” value ([1]; 0.1 mg/kg) is reported as 153.40 and the “Mean immobility time” value ([1]; 0.3 mg/kg) is reported as 129.10. For the same compound, the “Mean immobility time” value ([1]; 1.0 mg/kg) was 156.80, the “Mean immobility time” value ([1]; 3.0 mg/kg) was 124.60 and the “Mean immobility time” value ([1]; 10 mg/kg) was 141.20. For the same compound, the “Reversal of 5-HT2A antagonist induced reductions in open arm measures of the EPM, in words” value [2] was “Pro-therapeutic effects”.

In the case of `O=C(/C=C/c1c(C(=O)O)[nH]c2cc(Cl)cc(Cl)c12)Nc1ccccc1` [Gavestinel], the “Mean immobility time” value ([1]; 0.1 mg/kg) is reported as 136.10, the “Mean immobility time” value ([1]; 0.3 mg/kg) is reported as 116.30 and the “Mean immobility time” value ([1]; 1.0 mg/kg) is reported as 109.60. The “Mean immobility time” value ([1]; 3.0 mg/kg) was 122.70, the “Mean immobility time” value ([1]; 10 mg/kg) was 111.40 and the “Mean immobility time” value ([1]; 30 mg/kg) was 131.90. The “Effect on immobility in the FST, in words” value [1] was “numerically reduce immobility”.

In the case of `O=C1[C@@H]2[C@H]3CC[C@H](C3)[C@@H]2C(=O)N1C[C@@H]1CCCC[C@H]1CN1CCN(c2nsc3ccccc23)CC1` [Lurasidone], the immobility time in the rodent forced swim test (FST), Mean ([1]; 1 mpk alone) is reported as 157 s, the immobility time in the rodent forced swim test (FST), Mean ([1]; 3 mpk alone) is reported as 169 s and the immobility time in the rodent forced swim test (FST), Mean ([1]; .2 mpk alone) is reported as 146 s. The “DTO Mean” value ([2]; .1 mg/kg alone) was 172.9, the “PCT Mean” value ([2]; .1 mg/kg alone) was 32.5% and the “DTO Mean” value ([2]; .2 mg/kg alone) was 120.8. The “PCT Mean” value ([2]; .2 mg/kg alone) was 22.9%, the “DTO Mean” value ([2]; .3 mg/kg alone) was 134.2 and the “PCT Mean” value ([2]; .3 mg/kg alone) was 26.6%.

In the case of `COc1cccc([C@H](O)C2CCN(CCc3ccc(F)cc3)CC2)c1OC` [MDL100907], the “Distance travelled in the open arm and % time in the open arm, in words” value [3] is listed as “significantly reduced”, the “Distance Traveled Open (DTO) Mean” value ([2]; Table 1, .3 mg/kg alone) is listed as 114.3 and the “Percent open (PCT) Mean” value ([2]; Table 1, .3 mg/kg alone) is listed as 19.2%. For the same compound, the “Effect on distance travelled in open arm / % time in open arm of EPM, in words” value ([2]; agent alone vs control, doses of Tables 1 and 2) was “significantly reduces both distance travelled in the open arm and % open arm activity”.

For `CN[C@H]1CC[C@@H](c2ccc(Cl)c(Cl)c2)c2ccccc21` [Sertraline], the “Mean immobility time” value ([1]; 20 mg/kg) was 85.50.

For `O=C(c1ccc(F)cc1)C1CCN(CCn2c(=O)[nH]c3ccccc3c2=O)CC1` [ketanserin], the “Distance travelled in the open arm and % time in the open arm, in words” value [3] is listed as “significantly reduced”.
